Assay results published in patent US9220746B2, “Compounds and methods for treating bone disorders and controlling weight” (The University of North Carolina at Chapel Hill, priority 2009, dated 2015).

B1: IGFBP-2: Insulin-like growth factor binding protein-2, 36,000 dalton protein, purified from cellular conditioned medium (protein, UniProt P18065 36-325, looked up)
Insulin-like growth …: AEVLFRCPPCTPERLAACGPPPVAPPAAVAAVAGGARMPCAELVREPGCGCCSVCARLEGEACGVYTPRCGQGLRCYPHPGSELPLQALVMGEGTCEKRRDAEYGASPEQVADNGDDHSEGGLVENHVDSTMNMLGGGGSAGRKPLKSGMKELAVFREKVTEQHRQMGKGGKHHLGLEEPKKLRPPPARTPCQQELDQVLERISTMRLPDERGPLEHLYSLHIPNCDKHGLYNLKQCKMSLNGQRGECWCVNPNTGKLIQGAPTIRGDPECHLFYNEQQEARGVHTQRMQ

How the values were obtained:
[1] = system: primary mouse preadipocytes; test: Differentiation of primary mouse preadipocytes, oil red O staining; type: cell-based; settings: peptide 2 ng to 2 ug/ml
Method: The maximum effect of the peptide was to inhibit differentiation to a level wherein <20% of the cells were positive. These findings were reconfirmed using primary mouse preadipocytes. 35-50 day old mice were killed and inguinal fat pads were removed aseptically. Fat tissue was washed and dissolved in Hanks basic salt solution containing 0.1% glucose and 2 mg/ml collagenase, (type 3 Worthington) and 4% BSA. Following 15 min digestion at 37°, the tissue was separated by dispersion and pipetting and then filtered through an 80 micron sterile nylon filter. The cells were then plated in DMEM F12 containing 10% fetal calf serum and then centrifuged at 700×g to separate the stromal vascular cells from the adipocytes, which float. The supernatant was discarded and the cell pellet which contained the stromal vascular cells was resuspended in DMEM F12 with 10% FCS and plated at a density of 15,000 cells/cm^2. The medium was aspirated 24 hr later and fresh medium was replaced every 3 days until the cells reached 80-90% confluence. Differentiation was induced by adding serum free medium containing 25 mM glucose, 10 ug/ml transferin, 10 nM T3, 10-7 dexamethasone, 5 ug/ml HDL and 16.7 nM insulin. This was added to cultures that were between […]. […] The IGFBP-2 had been purified from cellular conditioned medium and was determined to be homogenous by amino acid sequence analysis.

adherent macrophages = test: Osteoclast differentiation, tartrate resistant acid phosphatase staining; type: cell-based, mouse; settings: for osteoclast differentiation: macrophages of IGFBP-2 gene deleted Balb/c mice, mCSF, RANK ligand, TRAP stain day 7
Excerpt: The method for osteoclast differentiation is as follows: Balb/c mice in which the IGFBP-2 gene had been deleted (see V. DeMambro et al, Endocrinology, 149(5): 2051-2061 (2007)) were anesthetized and sacrificed using cervical dislocation. The femurs from each mouse were dissected free of soft tissue and the bone marrow aspirated by needle puncture. Cells were removed sterile and resuspended in DMEM with 10% fetal calf serum. The cells were centrifuged at 700×g and the cell pellet resuspended in medium and plated in 24 well plates at a concentration of 5000 cells/cm^2. The plates that are used are low adherence plates that have no additives to facilitate cell adherence. Under these conditions macrophages will adhere while other cells will not. The media is supplemented with mCSF 20 ng/ml. After 3 days the cells are removed from the plate and the adherent macrophages are exposed to fresh media containing 10% FBS and mCSF. This is repeated again after 3 days and then after an additional 3 days cells are trypsinized and replated in fresh plates at 6×10^4 cells/cm. At this time RANK ligand, 50 ng/ml, is added, although in some experiments concentrations as low as 10 ng/ml were utilized. Medium is changed at 3 and 6 days and on day 7 cells are stained for tartrate resistant acid phosphatase, a marker of osteoclast differentiation. IGFBP-2 was added at concentrations between 50 ng/ml and 500 mcg/ml. The peptide was added at 20 or 200 ng/ml.
For tartrate resistant acid phosphatase staining, a 1% solution is prepared and incubated with the cells for 30 min at room temperature. Cultures are then washed and cell number determined by manual counting.

metacarpals = test: Metacarpal culture ex vivo (calcein incorporated area, length, width); type: cell-based, mouse; settings: 10 days, IGFBP2 200 ng/ml, peptides 2 μg/ml, vs PBS
Method: FIG. 2. The heparin binding domain of IGFBP2 enhances periosteal expansion of metacarpals ex vivo. Metacarpals were collected from day 1 male mouse, and treated with osteogenic media with IGFBP2 (200 ng/ml) or the heparin-binding domain peptide (HBD-peptide) (2 μg/ml) in the presence or absence of IGF-1 (20 ng/ml) for 10 days. Bones were labeled with calcein (500 ng/ml) and calcein incorporated area was visualized (a) and longitudinal length of calcein incorporated area was quantified (b). Alcian blue and Von Kossa double staining was performed (c) and length and width of metacarpals were quantified (d). Statistical difference was analyzed by ANOVA followed by Bonferroni post-hoc test. Figures shown represent at least 3 independent experiments. Values are expressed as the mean±SEM (n=3-4). ^a; <0.05 vs PBS, ^b; <0.01 vs PBS, ^c; <0.001 vs PBS, ^d; <0.01 vs HBD, ^e; <0.05 vs IGF-I, ^f; <0.05 vs HBD.
Metacarpals were isolated from Igfbp2^−/− mice at 1-day old and incubated in DMEM containing 0.5% BSA, 50 μg/ml ascorbic acid and 1 mM β-glycerol phosphate for 10 days^54. Stimulants were added to culture media from day 1. At day 10, metacarpals were incubated in media containing calcein (500 ng/ml) for 2 hours for staining of calcium deposition, and images were obtained. Then, bones were fixed with 4% PFA, embedded in paraffin, and processed for Alcian blue and von Kossa double staining.

| serum concentration at which osteoclast differentiation was still detected in the presence of the peptide (adherent macrophages) | Molecule | inhibition of adipocyte differentiation [1] | osteoclast differentiation (adherent macrophages) | calcein incorporated area of metacarpals (metacarpals; IGF-1 20 ng/ml) | width (and length) of metacarpals (metacarpals) |
| --- | --- | --- | --- | --- | --- |
| 0.5% | KHHLGLEEPKKLR (IGFBP-2 heparin binding domain-containing peptide sequence) [peptide of SEQ ID NO:1] | reconfirmed | would not differentiate into osteoclasts without addition | – | – |
| – | B1 | – | would not differentiate into osteoclasts without addition | significantly enhanced | increased the width of metacarpals |
